The results in this text go back to patent US20140350300A1, “ALISKIREN HEMIFUMARATE, CRYSTAL FORM AND AMORPHOUS SOLID” (DJADA PHARMACEUTICAL SA, priority 2011, published 2014).

A short description of data set [1]: Compressibility test on tablets. In kind it is physicochemical. The protocol: A set of tablets was prepared using different compression forces. A compressibility test was carried out on these.
Data set [2] in a line: Stability test (exposure to humidity, XRPD). In kind it is physicochemical. The following applies: 25° C. The procedure:
Stability tests were carried out on Aliskiren hemifumarate, amorphous solid of this invention and Aliskiren hemifumarate, amorphous solid obtained as described in WO2008/061622, maintaining the samples at 25° C., 75% RH. […] The same samples were exposed to 25° C., 60% RH.

Consider `COCCCOc1cc(C[C@@H](C[C@H](N)[C@@H](O)C[C@H](C(=O)NCC(C)(C)C(N)=O)C(C)C)C(C)C)ccc1OC`, for which the “Rupture Strength” value was found to be 1.5 N in data set [1] (tablet #1, compression strength 22.27 kN); 2 N in data set [1] (tablet #2, compression strength 23.82 kN); 1.5 N in data set [1] (tablet #3, compression strength 24.15 kN); 2 N in data set [1] (tablet #4, compression strength 6.80 kN); 2 N in data set [1] (tablet #5, compression strength 7.95 kN); 1.5 N in data set [1] (tablet #6, compression strength 10.10 kN). The “Rupture Strength” value in data set [1] (tablet #7, compression strength 11.55 kN) turned out to be 2.2 N; in data set [1] (tablet #8, compression strength 7.88 kN), 2.5 N; in data set [1] (tablet #9, compression strength 10.15 kN) it was 2 N; in data set [1] (tablet #10, compression strength 13.18 kN) it was 2 N; in data set [1] (tablet #11, compression strength 15.60 kN), 2 N; in data set [1] (tablet #12, compression strength 14.12 kN), 2 N.

`COCCCOc1cc(C[C@@H](C[C@H](N)[C@@H](O)C[C@H](C(=O)NCC(C)(C)C(N)=O)C(C)C)C(C)C)ccc1OC` [(2S,4S,5S,7S)-5-amino-N-(3-amino-2,2-dimethyl-3-oxypropyl)-4-hydroxy-7-[[4-methoxy-3-(3-methoxypropoxy)pheny]methyl]-8-methyl-2-propan-2 ilnonanamide]: in data set [2] (60% RH, 5 days, curve A basal vs curve B, FIG. 15), the “Typical nature of the diffractogram (XRPD pattern) after exposure” value is reported as “lost”. Also, the “Change of physical form of the sample” value in data set [2] (75% RH, after 2 hours) was “changed from solid to viscous liquid form”. Moreover, in data set [1] (comparison of Tables 7 and 8), the “Rupture strength compared with tablets of amorphous solid obtained as described in WO2008/061622” value is “higher”. The “Rupture Strength” value worked out at 4.5 N in data set [1] (tablet #1, compression strength 11.83 kN); 4 N in data set [1] (tablet #2, compression strength 5.83 kN); 2 N in data set [1] (tablet #3, compression strength 16.45 kN); 4 N in data set [1] (tablet #4, compression strength 10.85 kN); 3.5 N in data set [1] (tablet #5, compression strength 19.43 kN).
